Measured values from patent publication US20050075269A1, “Substituted benzofuran-2-carboxamides derivatives” (priority 2001, published 2005).
Counter-ions that a name gives are not always drawn.

melting point: > 233 °C
SMILES: CNCCNC(=O)c1cc2cc(N3CCN(CCCCc4c[nH]c5ccc(C#N)cc45)CC3)ccc2o1 (as salt: hydrochloride) [f), N-(2-methylaminoethyl)-5-{4-[4-(5-cyano-1H-indol-3-yl)butyl]piperazin-1-yl}benzofuran-2-carboxamide]
